Consider 4 compounds from patent publication US11712432B2, “Method of treating cancer with an elevated glycogen content” (University of Kentucky Research Foundation, priority 2018, dated 2023).

One data set has as its system A549 adenoma cells. Put plainly: A549 cells treated with increasing concentrations of DAB. In kind it is cell-based. As to conditions: Homo sapiens, FIG. 32A. From the text: (§1) FIGS. 32A-B show graphs illustrating in vitro and in vivo efficacy of the glycogen phosphorylase inhibitor 1,4-dideoxy-1,4-imino-d-arabinitol (DAB) in non-small cell lung cancer.
The next data set deals with A549 xenografts. Put plainly: A549 xenograft, tumor size. In kind it is in vivo, athymic nude mice. As to conditions: 20 mg/kg daily intraperitoneal vs PBS, 15 weeks. The protocol: as §1
For in vivo tumor growth, H1299, H2030 and A549 cells were dissociated into single cells, counted and resuspended at 5×10^6 cells per 100 μl of 1:1 media/matrigel (BD). 8-10-week-old female Foxn1^nu/Foxn1^nu(Nude) mice (JAX Laboratories) were injected subcutaneously with 5×10^6 cells on both sides of the flanks. Tumor growth was measured twice a week by caliper in a non-blinded fashion. Tumors were allowed to grow upwards of 1000 mm^3. All mouse experiments were approved by the BCH Animal Care and Use Committee and by the University of Kentucky Institutional Animal Care and Use Committee, both accredited by the Association for Assessment and Accreditation of Laboratory Animal Care and were performed in accordance with relevant institutional and national guidelines and regulations.

Another data set has as its system A673. As to the kind of experiment: Total glycogen in guaiacol treated ES cell lines. Type of data set: cell-based. The conditions noted are these: at ~20 μM (IC50), A673 shown. As for the experimental part: Cells were washed twice in PBS and then lysed in 20 mM NaAcetate pH 5.3, 150 mM NaCl, 10% (v/v) glycerol, 1% (v/v) NP-40. Lysates were centrifuged at 10,000×g at 4° C. for ten minutes. Cleared lysates or purified glycogen were dissolved in ddH2O, followed by acid hydrolysis with 2N HCL for 3 h at 98° C. The reaction was quenched with 2N NaOH for subsequent experiments. Glycogen-derived glucose molecules were measured by either biochemical assay or gas chromatography-mass spectrometry (GC-MS). For the biochemical assay, a portion of the digested lysate was incubated for half an hour at room temperature with 100 U L^−1 of both hexokinase and glucose-6-phosphate dehydrogenase (Sigma) in 50 mM Tris-HCl pH 7.5, 5 mM MgCl2, 0.5 mM ATP, 0.5 mM NAD^+. The absorbance was measured at 340 nm using glucose standards to determine glycogen concentration in lysates; undigested lysates were used for background subtraction. […]
Guaiacol as a therapeutic agent to target ES in vitro and in vivo. Glycogen metabolism has not been evaluated as an anti-cancer target in ES. […] Cell viability after treatment of guaiacol was assessed at various concentrations for 48 hrs in three different ES cell lines (TC32, A673 and HS822T). […]

For data set [1] the following is noted: general statement; cited from earlier work.
A further data set deals with A673 xenograft tumors. As to the kind of experiment: Normalized glycogen levels in treated xenograft tumors. Type of data set: in vivo, athymic nude mice. The conditions noted are these: FIG. 31C. As for the experimental part:
(§2) FIGS. 31A-E show graphs illustrating in vitro and in vivo efficacy of the glycogen synthase inhibitor guaiacol as an anti-ES agent. (A) A673 Ewing's sarcoma cells were treated with increasing concentrations of guaiacol. (B) The IC50 for guaiacol is ˜20 μm in A673 cells. […] (E) A673 cells (10^7) were injected subcutaneously in athymic nude mice and when the tumor reached 0.1 cm^3 in size, a daily intraperitoneal injection was initiated of either PBS or guaiacol (20 mg/kg) and tumor size was measured over 15 weeks.
(§3) The efficacy of guaiacol was further tested in the xenograft model of ES. A673 cells (10^6) were injected subcutaneously in athymic nude mice and when the tumor reached 0.1 cm^3 in size daily IP injection of either PBS or guaiacol (20 mg/kg) was initiated and tumor size was measured over 15 weeks.

Data set [2] is described as follows: Tolerability in xenograft mice (body weight, motor and behavior testing). Type of data set: in vivo. As to conditions: 20 mg/kg daily IP, athymic nude mice. As for the experimental part:
as §3

Another data set has as its system TC32. Put plainly: Cell viability after guaiacol treatment, TC32. In kind it is cell-based. As to conditions: Homo sapiens, TC-32; TC32, 48 hrs; read-out: IC50 (50% cell viability). As for the experimental part:
(§4) Guaiacol as a therapeutic agent to target ES in vitro and in vivo. Glycogen metabolism has not been evaluated as an anti-cancer target in ES. Guaiacol is a naturally occurring compound that is a GYS inhibitor. […] Cell viability after treatment of guaiacol was assessed at various concentrations for 48 hrs in three different ES cell lines (TC32, A673 and HS822T). Guaiacol IC50 (50% cell viability) for all three cell lines is ˜20 μM which corresponds to a 3-fold reduction in total glycogen (A673 is shown in FIGS. 31A-C).

The next data set has as its system HS822T. Put plainly: Cell viability after guaiacol treatment, HS822T. Type of data set: cell-based. As to conditions: 48 hrs, read-out: IC50 (50% cell viability). As for the experimental part:
as §4

Another data set concerns A673 xenograft. Put plainly: A673 xenograft model of ES, tumor size. In kind it is in vivo, athymic nude mice. The conditions noted are these: 20 mg/kg daily intraperitoneal vs PBS, 15 weeks. The protocol: as §2, §3
Data set [3] relates to AMPK. Put plainly: Metformin induced AMPK activation (p-ACC) in guaiacol treated cells. As to conditions: guaiacol treated cells plus metformin. Type of data set: cell-based.
The conditions of data set [4]: general statement; cited from earlier work. This is another data set of the same source.
Data set [5] relates to A673 Ewing's sarcoma cells. Put plainly: Cell viability after guaiacol treatment, A673. In kind it is cell-based. The conditions noted are these: Homo sapiens. As for the experimental part:
(A) A673 Ewing's sarcoma cells were treated with increasing concentrations of guaiacol. […] (E) A673 cells (10^7) were injected subcutaneously in athymic nude mice and when the tumor reached 0.1 cm^3 in size, a daily intraperitoneal injection was initiated of either PBS or guaiacol (20 mg/kg) and tumor size was measured over 15 weeks.
Glycogen metabolism has not been evaluated as an anti-cancer target in ES. Guaiacol is a naturally occurring compound that is a GYS inhibitor. […] Cell viability after treatment of guaiacol was assessed at various concentrations for 48 hrs in three different ES cell lines (TC32, A673 and HS822T).

Another data set relates to HEK293 cells. As to the kind of experiment: GP localization by immunofluorescence after leptomycin. In kind it is cell-based. As to conditions: leptomycin B for 3 hours. From the text: FIGS. 11A-E show images illustrating that malin ubiquitination of GPBB drives nuclear localization. (A) Immunoblotting analysis of HSP70, laforin, glycogen debranching enzyme (GDE), branching enzyme (BE), and glycogen phosphorylase (GP) with anti-tubulin (Tub) as the loading control in empty vector (EV) or malin-overexpressing (malin-OE) HEK293 cells. (B) Localization of exogenously expressed malin and GP in HEK293 cells assessed by immunofluorescence. (C) In vitro ubiquitination assay using recombinant E1, E2 (UbcH5a), malin, and myc-GP followed by immunoprecipitation with anti-myc, SDS-PAGE, and immunoblotting analysis with an antibody detecting ubiquitin. (D) Effect of inhibition of nuclear […] with leptomycin on GP localization. HEK293 cells were transfected with GFP-MEK or empty vector for the analysis of endogenous GP. Twenty-four hours post-transfection, cells were exposed to leptomycin B for 3 hours, and protein localization was assessed by immunofluorescence. (E) Schematic model for GP nuclear translocation after malin-mediated ubiquitination. All data are representative of three experiments.
Since GPBB is a novel malin-interacting protein, malin-dependent regulation of its localization was of interest. GPBB is largely localized to the cytoplasm (FIG. 11B). […]

The subject of data set [6] is AMPK. Put plainly: p-AMPK and p-ACC after metformin treatment of ES cells. In kind it is cell-based. As for the experimental part: Whole-cell extracts were generated in RIPA buffer (0.5% deoxycholate, 1% IGEPAL-CA630, 0.1% sodium dodecyl sulfate, 150 mM NaCl, 50 mM Tris-8.1), lysates were cleared by centrifugation and protein concentrations were quantified with the Pierce BCA Protein Assay Kit (Thermo). For western blotting, 25 μg of protein extract per sample was denatured with heat and reducing agents, separated on a 4-12% acrylamide gel (BioRad) and transferred to PVDF (BioRad). Antibodies used for western blotting were: malin (Abcam, 1:1,000), acetyl-H3 (EMDmillipore, 1:1,000), pan-methylation (AbCAM, 1:1,000), myc (Abcam, 1:500), branching enzyme (Lsbio, 1:500), glycogen debranching enzyme (LSBio, 1:1,000), glycogen phosphorylase liver isoform (Cell Signaling Technology 46955 1:2,000), glycogen phosphorylase brain isoform (LSBio, 1:1,000), GAPDH (Abcam 1:1,0000), Histone H3 (Abcam ab1791, 1:20,000), H3K27Ae (Abcam, 1:500), Flag-M2-HRP (Sigma, 1:5000), HSP70 (Abcam, 1:5000) and H3K27me3 (Millipore 07-449; 1:4,000). Each primary antibody was incubated overnight at 4° C. Tubulin (Abcam, 1:20,000) was used as a loading control. All antibodies have detailed species validation available online from vendors. The secondary antibody anti-rabbit IgG, HRP-linked Antibody (Cell Signaling 7074, 1:5,000) or anti-mouse IgG, HRP-linked antibody (Cell Signaling 7076, 1:5,000) was incubated for 1 h at room temperature. After washing, chemiluminescence images were acquired using the ChemiDocMP (BioRad).
Malin-overexpression cells are more sensitive to the AMPK-activator metformin. Since aberrant ES-glycogen binds to AMPK with high affinity and is inhibitory over p-AMPK activity, malin-OE cells that normalize glycogen architecture should be more sensitive to AMPK activators. Both A673-EV and A673-malin-OE cells were treated with 2 mM metformin and both p-AMPK and p-ACC were assessed.

[7] abbreviates: 2 mM metformin, A673-EV and A673-malin-OE cells.

Entries after “also recorded” stand apart in the source; their conditions may differ. Like-named read-outs stand apart in the source and are kept apart here.

The IC50 is the midpoint of a concentration-inhibition curve. Regarding `OC[C@H]1NC[C@@H](O)[C@@H]1O` [DAB, 1,4-dideoxy-1,4-imino-D-Arabinitol], the IC50 in the data set on A549 adenoma cells is ~1.5 µM. The “tumor size / xenograft growth” value in the data set on A549 xenografts is “failed to continue to proliferate over the course of 15 weeks; also recorded: significantly decreased tumor size as compared to PBS”.

As to `COc1ccccc1O` [guaiacol, 2-methoxyphenol], the “reduction in total glycogen” value in the data set with A673 was 3 fold. Besides, the toxicity in vivo entry in data set [1] is recorded as “minimal toxicity in vivo”. Moreover, the “reduction in normalized glycogen levels” value in the data set with A673 xenograft tumors came out at 3 fold. The “tolerability / adverse side effects” value in data set [2] is reported as “well tolerated in athymic nude mice without any adverse side effects”. Moreover, the IC50 in the data set on TC32 was ~20 µM; in the data set on HS822T it was ~20 µM; in data set [5] (A673, 48 hrs, read-out: IC50 (50% cell viability)), ~20 µM; in data set [5] (A673 cells, FIG. 31B, read-out: IC50), ~20 µM. Also, the “reduction in tumor volume at the experiment endpoint” value in the data set on A673 xenograft came to 4 fold. The “sensitivity to metformin induced AMPK activation (p-ACC)” value with AMPK [3] was “more sensitive to metformin induced AMPK activation, showing more prominent increase in p-ACC”. The bioavailability result in data set [4] is “high bioavailability”.

Turning to `CCC(=C/[C@H](C)C/C=C/C(C)=C/[C@@H](C)C(=O)[C@@H](C)[C@H](O)[C@@H](C)C/C(C)=C/C(=O)O)/C=C/[C@@H]1OC(=O)C=C[C@@H]1C` [leptomycin], the “localization of endogenous GP” value in the data set with HEK293 cells is on record as “accumulation of endogenous GP in the nucleus”.

Regarding `CN(C)C(=N)N=C(N)N` [metformin], in the data set with AMPK [6] (setting [7]), the p-ACC entry is reported as “only the malin-OE cell line showed a significant increase in p-ACC”; the p-AMPK result was “increased p-AMPK in both EV and malin-OE cell lines”. For the same compound, in the data set with AMPK [6] (ES-cells, FIG. 20), the “AMPK activity (p-ACC read out) response to AMPK activator” value is given as “insensitive”.
